Assay results published in PMC7913927, “Leishmanicidal Activity of Betulin Derivatives in Leishmania amazonensis; Effect on Plasma and Mitochondrial Membrane Potential, and Macrophage Nitric Oxide and Superoxide Production” (Microorganisms, 2021).
Where two headings read alike, the source gives them in different places.

Tests used:
[1] = system: L. (V.) braziliensis promastigotes, reference strain MHOM/BR/LTB300; conditions: reference strain MHOM/BR/LTB300; cited from earlier work
[2] = system: VE2000MM intracellular amastigotes in J774.1 macrophages; experiment: Macrophage-amastigote model, patient isolate VE2000MM; type: cell-based, Leishmania amazonensis; conditions: for Regresion (GraphPad 6) of %Control vs dose (50% inhibitory concentration) / Growth (%) Exp1 %Control / Growth (%) Exp1 A/100MØ / Growth (%) Exp1 A/MØ / Growth (%) Exp1 Infección / Growth (%) Exp2 %Control / Growth (%) Exp2 A/100MØ / Growth (%) Exp2 A/MØ / Growth (%) Exp2 Infección / Growth (%) Exp3 %Control / Growth (%) Exp3 A/100MØ / Growth (%) Exp3 A/MØ / Growth (%) Exp3 Infección / Average A/100MØ: VE2000MM; for Regresion (GraphPad 6) of %Control vs dose (50% inhibitory concentration): unit from Dose head; for Average A/100MØ: average of Exp1-3
Description: We used a previously described methodology, with some modifications. Macrophage monolayers, grown in RMPIc medium, for 3 days, were detached from the bottom of the culture chamber, by physical treatment (low temperature and light strokes). Obtained macrophages were seeded in flat-bottom 96-well culture plates, at a density of 2 × 10^5 cells mL^−1 (40,000 macrophages/well), in a final volume of 200 µL. Plates were incubated for 2 h, and the supernatant was discarded to remove non-adhered macrophages. Medium was replaced with stationary-phase promastigotes suspended in 200 µL of RPMIc (2 × 10^6 parasites mL^−1, 400,000 parasites/well), at a macrophage: parasite ratio 1:10 [40]. The plates were incubated for 4 h. Afterwards the medium was replaced with fresh RPMIc and increasing concentrations of compounds or drugs tested were applied, in volumes of 2 µL, according to the different treatment groups. Plates were kept for 72 h, at 37 °C and 5% CO2. The medium was discarded and the wells were washed twice with PBS. Next, a Giemsa staining was performed in situ. It consisted of adding 200 µL of methanol/well, incubating for 5 min, discarding the fixative, and letting it dry at room temperature. Later, the Giemsa solution (10% in PBS w/v, 200 µL/well) was added, incubated for 10 min, and washed with PBS, allowing it to dry. Finally, the bottom of the plates was detached by percussion and the circular bottoms (wells) were fixed to slides with Permount synthetic resin, for later evaluation (Alcazar W., manuscript in preparation). Cell counting was performed with a 100× immersion objective. A minimum of 200 random macrophages were examined. The percentage of infected macrophages (% infection) and the average number of amastigotes present in infected macrophages (amastigotes) were determined. […] The infection rate represents the number of intracellular amastigotes per 100 macrophages evaluated. Additionally, the GI50 for the decrease in the infection rate was calculated. At least three independent experiments were performed. The effect of amphotericin-B (AmB) [Sigma-Aldrich, (St. Louis, MO, USA)] was included as positive control of the assay.

[3] = system: L. (L.) braziliensis MHOM/BR/LTB300; parameters: method as in PMID 25240731; conditions: cited from earlier work

For `C=C(C)C1CCC2(C=NO)CCC3(C)C(CCC4C5(C)CCC(=NO)C(C)(C)C5CCC43C)C12` (stereo not drawn) [Compound 18], the “active concentration in L. (L.) braziliensis” value [1] is listed as “less than 10 µM”, the “SI (CC50/GI50) VE2000MM” value ([2]; J774.1 CC50 / intracellular amastigote GI50, Table 2) is listed as 66.79 and the GI50 ([2]; VE2000MM intracellular amastigotes, read-out: GI50 (µM) Experiment 1 Regresion) is listed as 0.87 µM. The GI50 ([2]; VE2000MM intracellular amastigotes, read-out: GI50 (µM) Experiment 2 Regresion) was 0.43 µM, the GI50 ([2]; VE2000MM intracellular amastigotes, read-out: GI50 (µM) Experiment 3 Regresion) was 0.62 µM and the “Regresion (GraphPad 6) of %Control vs dose (50% inhibitory concentration)” value (shortened to “Regresion … (50% inhibitory concentration)”) ([2]; Exp1) was 0.87 µM. For the same molecule, the “Regresion … (50% inhibitory concentration)” value ([2]; Exp2) was 0.43 µM, the “Regresion … (50% inhibitory concentration)” value ([2]; Exp3) was 0.62 µM and the “Growth (%) Exp1 %Control” value ([2]; dose 0.10 µM, Exp1) was 85.88%. The “Growth (%) Exp1 A/100MØ” value ([2]; dose 0.10 µM, Exp1) was 212.29, the “Growth (%) Exp1 A/MØ” value ([2]; dose 0.10 µM, Exp1) was 3.35 and the “Growth (%) Exp1 Infección” value ([2]; dose 0.10 µM, Exp1) was 63.37%. For the same molecule, the “Growth (%) Exp2 %Control” value ([2]; dose 0.10 µM, Exp2) was 78.62%, the “Growth (%) Exp2 A/100MØ” value ([2]; dose 0.10 µM, Exp2) was 190.11 and the “Growth (%) Exp2 A/MØ” value ([2]; dose 0.10 µM, Exp2) was 3.20. The “Growth (%) Exp2 Infección” value ([2]; dose 0.10 µM, Exp2) was 59.41%, the “Growth (%) Exp3 %Control” value ([2]; dose 0.10 µM, Exp3) was 72.17% and the “Growth (%) Exp3 A/100MØ” value ([2]; dose 0.10 µM, Exp3) was 163.09. For the same molecule, the “Growth (%) Exp3 A/MØ” value ([2]; dose 0.10 µM, Exp3) was 3.10, the “Growth (%) Exp3 Infección” value ([2]; dose 0.10 µM, Exp3) was 52.61% and the “Average A/100MØ” value ([2]; dose 0.10 µM) was 188.50. For the same molecule, the “Growth (%) Exp1 %Control” value ([2]; dose 0.50 µM, Exp1) was 66.72%, the “Growth (%) Exp1 A/100MØ” value ([2]; dose 0.50 µM, Exp1) was 164.92 and the “Growth (%) Exp1 A/MØ” value ([2]; dose 0.50 µM, Exp1) was 2.90. The “Growth (%) Exp1 Infección” value ([2]; dose 0.50 µM, Exp1) was 56.87%, the “Growth (%) Exp2 %Control” value ([2]; dose 0.50 µM, Exp2) was 51.58% and the “Growth (%) Exp2 A/100MØ” value ([2]; dose 0.50 µM, Exp2) was 124.74. For the same molecule, the “Growth (%) Exp2 A/MØ” value ([2]; dose 0.50 µM, Exp2) was 2.98, the “Growth (%) Exp2 Infección” value ([2]; dose 0.50 µM, Exp2) was 41.86% and the “Growth (%) Exp3 %Control” value ([2]; dose 0.50 µM, Exp3) was 54.73%. For the same molecule, the “Growth (%) Exp3 A/100MØ” value ([2]; dose 0.50 µM, Exp3) was 123.67, the “Growth (%) Exp3 A/MØ” value ([2]; dose 0.50 µM, Exp3) was 3.24 and the “Growth (%) Exp3 Infección” value ([2]; dose 0.50 µM, Exp3) was 38.17%. The “Average A/100MØ” value ([2]; dose 0.50 µM) was 137.78, the “Growth (%) Exp1 %Control” value ([2]; dose 1.00 µM, Exp1) was 45.38% and the “Growth (%) Exp1 A/100MØ” value ([2]; dose 1.00 µM, Exp1) was 112.17. The “Growth (%) Exp1 A/MØ” value ([2]; dose 1.00 µM, Exp1) was 2.76, the “Growth (%) Exp1 Infección” value ([2]; dose 1.00 µM, Exp1) was 40.64% and the “Growth (%) Exp2 %Control” value ([2]; dose 1.00 µM, Exp2) was 23.47%. For the same molecule, the “Growth (%) Exp2 A/100MØ” value ([2]; dose 1.00 µM, Exp2) was 56.76, the “Growth (%) Exp2 A/MØ” value ([2]; dose 1.00 µM, Exp2) was 1.93 and the “Growth (%) Exp2 Infección” value ([2]; dose 1.00 µM, Exp2) was 29.41%. The “Growth (%) Exp3 %Control” value ([2]; dose 1.00 µM, Exp3) was 44.34%, the “Growth (%) Exp3 A/100MØ” value ([2]; dose 1.00 µM, Exp3) was 100.21 and the “Growth (%) Exp3 A/MØ” value ([2]; dose 1.00 µM, Exp3) was 2.85. For the same molecule, the “Growth (%) Exp3 Infección” value ([2]; dose 1.00 µM, Exp3) was 35.16%, the “Average A/100MØ” value ([2]; dose 1.00 µM) was 89.71 and the “Growth (%) Exp1 %Control” value ([2]; dose 5.00 µM, Exp1) was 12.40%. The “Growth (%) Exp1 A/100MØ” value ([2]; dose 5.00 µM, Exp1) was 30.64, the “Growth (%) Exp1 A/MØ” value ([2]; dose 5.00 µM, Exp1) was 1.33 and the “Growth (%) Exp1 Infección” value ([2]; dose 5.00 µM, Exp1) was 23.04%. For the same molecule, the “Growth (%) Exp2 %Control” value ([2]; dose 5.00 µM, Exp2) was 17.91%, the “Growth (%) Exp2 A/100MØ” value ([2]; dose 5.00 µM, Exp2) was 43.32 and the “Growth (%) Exp2 A/MØ” value ([2]; dose 5.00 µM, Exp2) was 2.00. The “Growth (%) Exp2 Infección” value ([2]; dose 5.00 µM, Exp2) was 21.66%, the “Growth (%) Exp3 %Control” value ([2]; dose 5.00 µM, Exp3) was 26.77% and the “Growth (%) Exp3 A/100MØ” value ([2]; dose 5.00 µM, Exp3) was 60.50. The “Growth (%) Exp3 A/MØ” value ([2]; dose 5.00 µM, Exp3) was 2.96, the “Growth (%) Exp3 Infección” value ([2]; dose 5.00 µM, Exp3) was 20.44% and the “Average A/100MØ” value ([2]; dose 5.00 µM) was 44.82. For the same molecule, the “Growth (%) Exp1 %Control” value ([2]; dose 10.00 µM, Exp1) was 11.00%, the “Growth (%) Exp1 A/100MØ” value ([2]; dose 10.00 µM, Exp1) was 27.18 and the “Growth (%) Exp1 A/MØ” value ([2]; dose 10.00 µM, Exp1) was 1.50. The “Growth (%) Exp1 Infección” value ([2]; dose 10.00 µM, Exp1) was 18.12%, the “Growth (%) Exp2 %Control” value ([2]; dose 10.00 µM, Exp2) was 9.36% and the “Growth (%) Exp2 A/100MØ” value ([2]; dose 10.00 µM, Exp2) was 22.64. For the same molecule, the “Growth (%) Exp2 A/MØ” value ([2]; dose 10.00 µM, Exp2) was 1.78, the “Growth (%) Exp2 Infección” value ([2]; dose 10.00 µM, Exp2) was 12.72% and the “Growth (%) Exp3 %Control” value ([2]; dose 10.00 µM, Exp3) was 7.87%. For the same molecule, the “Growth (%) Exp3 A/100MØ” value ([2]; dose 10.00 µM, Exp3) was 17.78, the “Growth (%) Exp3 A/MØ” value ([2]; dose 10.00 µM, Exp3) was 1.69 and the “Growth (%) Exp3 Infección” value ([2]; dose 10.00 µM, Exp3) was 10.52%. For the same molecule, the “Average A/100MØ” value ([2]; dose 10.00 µM) was 22.53, the GI50 ([2]; intracellular amastigotes, Supplementary Materials II, read-out: GI50 (µM) VE2000MM, mean of three experiments) was 0.64 µM and the “inhibition of parasite migration” value [3] was “inhibited parasite migration at nano and picomolar concentrations”.
